Results from PMC11723358, “Nelumbo nucifera Petals Ameliorate Depressive-like Symptom and Cognitive Deficit in Unpredictable Chronic Mild Stress Mouse Model” (Nutrients, 2024).

Experiments:
Assay in all cases: fluorescence, kynuramine to 4-hydroxyquinoline
Type in all cases: biochemical
MAO-B [1] = target: T1, MAO-B (Homo sapiens, UniProt P27338); details: read-out: % inhibition at 1000 μM
T1 construct: gene MAOB; human recombinant enzyme
T1 sequence (P27338 2-520): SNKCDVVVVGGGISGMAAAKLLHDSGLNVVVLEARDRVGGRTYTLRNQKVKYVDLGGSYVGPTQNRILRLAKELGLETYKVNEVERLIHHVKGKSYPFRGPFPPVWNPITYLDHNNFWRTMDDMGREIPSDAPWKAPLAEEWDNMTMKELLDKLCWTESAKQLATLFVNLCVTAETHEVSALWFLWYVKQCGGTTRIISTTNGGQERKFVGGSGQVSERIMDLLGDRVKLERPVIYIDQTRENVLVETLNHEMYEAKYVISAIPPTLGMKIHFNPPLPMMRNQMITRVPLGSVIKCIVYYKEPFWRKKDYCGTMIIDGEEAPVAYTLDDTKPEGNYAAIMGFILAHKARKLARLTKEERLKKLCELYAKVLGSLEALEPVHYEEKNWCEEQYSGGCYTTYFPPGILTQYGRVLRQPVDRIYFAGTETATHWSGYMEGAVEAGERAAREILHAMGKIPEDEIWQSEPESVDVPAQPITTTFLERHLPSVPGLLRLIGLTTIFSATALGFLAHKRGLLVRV
Excerpt: fluorescence, kynuramine to 4-hydroxyquinoline on MAO-B

MAO-A = target: T2, MAO-A (Homo sapiens, UniProt P21397)
T2 construct: gene MAOA; human recombinant enzyme
T2 sequence (P21397 1-527): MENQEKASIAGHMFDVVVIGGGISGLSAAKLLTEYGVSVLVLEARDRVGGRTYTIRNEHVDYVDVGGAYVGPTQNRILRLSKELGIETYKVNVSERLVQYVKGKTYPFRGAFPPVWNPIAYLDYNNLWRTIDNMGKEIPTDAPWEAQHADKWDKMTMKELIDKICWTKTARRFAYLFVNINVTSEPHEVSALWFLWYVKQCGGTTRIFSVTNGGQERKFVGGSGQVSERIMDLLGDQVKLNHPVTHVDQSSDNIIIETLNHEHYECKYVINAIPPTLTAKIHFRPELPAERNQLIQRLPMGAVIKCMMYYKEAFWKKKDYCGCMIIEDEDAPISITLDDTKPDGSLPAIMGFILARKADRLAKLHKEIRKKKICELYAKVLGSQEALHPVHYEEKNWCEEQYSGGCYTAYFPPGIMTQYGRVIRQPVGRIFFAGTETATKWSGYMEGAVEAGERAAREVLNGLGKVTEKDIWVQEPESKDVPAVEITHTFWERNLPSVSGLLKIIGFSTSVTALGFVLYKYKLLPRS

MAO-B [2] = target: T1, MAO-B

Row | Compound | inhibition at 1000 µM (MAO-B [1]) | IC50 (MAO-A) | IC50 (MAO-B [2])
1 | CC[C@H](CC[C@@H](C)[C@H]1CC[C@H]2[C@@H]3CC=C4C[C@@H](O)CC[C@]4(C)[C@H]3CC[C@]12C)C(C)C [compound 5, β-sitosterol] | 20.7 ± 1.8% | 2.8 ± 0.13 µM | 
2 | O=c1c(O[C@@H]2O[C@H](CO)[C@H](O)[C@H](O)[C@H]2O)c(-c2ccc(O)cc2)oc2cc(O)cc(O)c12 [compound 2, trifolin] |  | 578.4 ± 2.01 µM | 860.7 ± 3.7 µM
3 | C[C@@H]1O[C@@H](O[C@H]2[C@H](Oc3c(-c4ccc(O)cc4)oc4cc(O)cc(O)c4c3=O)O[C@H](CO)[C@@H](O)[C@@H]2O)[C@H](O)[C@H](O)[C@H]1O [compound 3, kaempferol-3-neohesperidoside] |  | 108.9 ± 0.21 µM | 242.2 ± 0.78 µM
4 | OCCc1ccc(O[C@@H]2O[C@H](CO)[C@@H](O)[C@H](O)[C@H]2O)cc1 [compound 4, icariside D2] | 43.5 ± 5.2% | 584 ± 11.8 µM | 
